Assay results from article PMC6384891, “An automated microliter-scale high-throughput screening system (MSHTS) for real-time monitoring of protein aggregation using quantum-dot nanoprobes” (Scientific Reports, 2019).
Like-named read-outs stand apart in the source and are kept apart here.

Assays:
Type in all cases: biochemical
Aβ42 [1] = target: T1, Aβ42 (Homo sapiens, UniProt P05067); assay: manual MSHTS system, Aβ aggregation inhibition
T1 construct: Human Aβ42 (4349-v, Peptide Institute); purchased Peptide Institute 4349-v
Procedure: The automated MSHTS system used was based on the method described in the Supplementary Methods. In this study, EC50 values of the plant crude extract library and the compound library were measured by the automated MSHTS system and the manual MSHTS system[19],[20], respectively. All fluorescence micrograph images were taken using a 4x objective in the MSHTS systems. […]
concentrations of RA were incubated with 30 µM A β and 30 nM QD 655-labeled Aβ or QD605-labeled Aβ in a 1536-well plate according to our previous reports1,5. Fluorescence micrographs […]
presence of 600 and 120 µM RA.
(1 picture or pasted object on this page, not shown here) […]
(§1) QDAβ were incubated with various concentrations of chaperones i n a 1536-well plate for 24 h at 37 ° C and observed by fluorescence microscopy. C, E, and P indicate CRT , ERp57, and PDI, respectively. EC50 and the SD values were determined from the micrographs of three independent

Aβ = target: T2, Aβ (Homo sapiens, UniProt P05067); assay: ThT assay of Aβ aggregation
T2 construct: Human Aβ42 (4349-v, Peptide Institute); purchased Peptide Institute 4349-v
Procedure: The ThT assay was conducted according to the method of Levine[10] modified in our laboratory.

tau MBD fragment = target: T3, tau MBD fragment (Mus musculus, UniProt P10637); assay: MSHTS system, tau aggregation inhibition with QDTau nanoprobe; conditions: 10 µM tau, 50 nM QDTau, 10 µM heparin, 10 mM DTT, 24 h at 37 °C
T3 construct: added N-terminal methionine (from NdeI site) (N); made in house; host or cells: E. coli Rosetta (DE3) pLys, pET-21a(+)
From the text: In this study, we used the microtubule-binding domain (MBD) fragment of 4-repeat tau (Fig. 4a) to image tau aggregation. First, we examined the aggregated condition of tau in the presence of heparin, which formed paired helical-like filaments under physiological conditions in vitro, according to early reports[24],[25]. […] Since 4-repeat tau contains two Cys residues (C222 and C253), it may be necessary for aggregation to occur, to inhibit intramolecular disulfide crosslinking, as was reported in a previous report. […] When 10 μM tau was incubated in the presence of 10 mM DTT, the SD value reached a maximum (Supplementary Fig. S10c,d), so we decided to observe aggregation using 10 μM tau. […] We compared tau and Aβ aggregates by TEM observation. The morphology of tau and Aβ fibrils was difficult to distinguish (Fig. 4b). […] We also confirmed by TEM observation that the aggregation of tau and Aβ contained QD nanoprobes (Fig. 4d). These aggregations were directly observed by confocal microscopy in real time (Fig. 4e). […] The imaging method using a QD nanoprobe without a drying step as in TEM observation may be suitable for detailed observation of aggregate shapes in solution.
Supplementary Fig. S11 Inhibition of tau aggregation by RA (a) and spearmint extract (b). 10 µM tau, 50 nM QDTau, 10 µM heparin, 10 mM DTT were incubated with various concentrations of RA […]
for 24 h at 37 ° C and observed by fluorescence microscopy. EC50 and the SD values were determined from the micrographs of three independent wells.
(1 picture or pasted object on this page, not shown here)
as §1, with “Supplementary Fig. S12 Inhibition of tau and Aβ aggregation by chaperones. 10 µM tau, 50 nM QDTau, 10 µM heparin, 10 mM DTT were incubated with various concentrations of chaperon es in a 1536-well plate for 24 h at 37 °C and observed by fluorescence microscopy. 30 µM Aβ , 30 nM QDAβ” for “QDAβ”

Aβ42 [2] = target: T1, Aβ42; assay: automated MSHTS system, Aβ aggregation inhibition imaged with QDAβ nanoprobe
Procedure: An outline of the automated MSHTS system developed in this study is as follows (Fig. 1e). First, sample solutions, such as natural extracts and/or chemical compounds, were diluted stepwise in a 384-well plate. The diluted samples in this plate were injected into a 1536-well plate at 2.5 µl per well (Supplementary Fig. S6a). […] The 1536-well plate was sealed, and each well was imaged by a fluorescence microscope system. After incubation to induce aggregation for 24 h at 37 °C, each well was imaged by a fluorescence microscope system. The images were analyzed to determine the SD values of fluorescence intensity of each pixel. The half-maximal effective concentration (EC50) was estimated from the SD values according to our previous method.
The automated MSHTS system used was based on the method described in the Supplementary Methods. In this study, EC50 values of the plant crude extract library and the compound library were measured by the automated MSHTS system and the manual MSHTS system[19],[20], respectively. All fluorescence micrograph images were taken using a 4x objective in the MSHTS systems.
Automated MSHTS system–sample preparation and mixing with Aβ
Sample preparation was carried out using Automated Workstation JANUS G3 (Perkin Elmer).
To make a dilution series of samples, dilution buffer (10%EtOH, 1×PBS) was aspirated ( asp. speed:
20 µl/s) using a conductive chip that can detect liquid level and injected (dsp. height: 0.75 mm, dsp. speed: 10 µl/s) into each well of a 384-well plate (384 Hard-shell micro plate HSP3951, BIO-RAD) without wells for injecting stoc k sample solution. Stock sample solutions were prepared, and were injected manually into the vacant wells of the 384-well plate. As a control without any inhibitor, dilution buffer alone was injected into the well instead of stock sample solution. The stock sample solution or control solution was aspirated (asp. height: 2 mm, asp. speed: 10 µl/s), injected (dsp. height: 4 mm, dsp. speed: 10 µl/s) into the next well containing the dilution buffer, and mixed by pipetting (asp. height: 2 mm, dsp. height: 4 m m , mix speed: 25 µl/s, mix cycles: 5). This dilution st ep was repeated five times, so that si x dilution series were prepared for each sample. The diluted samples in the 384-well plate were aspirated using a 384-chip head (asp. height: 1 mm, asp. speed:
3 µl/s) and injected (quadruplicate) (dsp. height: 1 mm, dsp. speed: 10 µl/s) into a 1536-well plate (1536 well FIA black plate, Greiner Bio-One) at 2.5 µl per well. […]
After centrifugation in a multi-well plate centrifuge, the 1536-well plate was observed by an inverted fluorescence microscope system (ECLIPSE Ti-E, Nikon) equipped with a color CCD camer a (DS-Ri2, Nikon). […]

[3] = 1st screening, read-out: EC50 [µM] by MSHTS system, Supplementary Table S2 (converted)
[4] = screening of compound library by MSHTS
[5] = tropolone derivatives, read-out: ThT [µM], EC50, Supplementary Table S4 (converted)
[6] = compound library, Aβ aggregation, read-out: EC50 by MSHTS system (MA), Fig. 3
[7] = Aβ aggregation, read-out: EC50 by ThT assay (TA), Fig. 3
[8] = 2nd screening, tropolone derivatives, read-out: EC50 [µM] by MSHTS system, Supplementary Table S3 (converted)
[9] = 30 µM Aβ, 30 nM QDAβ, 24 h at 37 °C, read-out: EC50 (μM) Aβ

T3 sequence (P10637 with tags, fused parts or gaps isoform P10637-5 limits assumed): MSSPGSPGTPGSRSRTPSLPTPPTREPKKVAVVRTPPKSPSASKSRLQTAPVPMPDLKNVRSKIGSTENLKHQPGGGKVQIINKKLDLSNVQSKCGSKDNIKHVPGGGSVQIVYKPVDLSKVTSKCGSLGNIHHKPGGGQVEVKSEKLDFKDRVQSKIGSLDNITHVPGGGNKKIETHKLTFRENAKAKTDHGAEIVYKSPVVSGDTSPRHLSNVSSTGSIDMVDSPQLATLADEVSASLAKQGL
T2 sequence (P05067 672-713 limits assumed): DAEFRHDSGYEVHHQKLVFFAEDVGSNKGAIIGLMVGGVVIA
T1 sequence (P05067 672-713 limits assumed): as above

Molecule: Oc1cc2ccccc2cc1O [MO-038]
- EC50 (Aβ42 [1]; [3]): 31.4 µM
- Aβ aggregation inhibitory activity (in words) (Aβ42 [1]; [4]): active

Molecule: O=c1ccc(-c2cccc([N+](=O)[O-])c2)ccc1O [MO-006]
- EC50 (Aβ; [5]): 75 µM

Molecule: O=c1ccc(/N=N/c2ccc([N+](=O)[O-])cc2)ccc1O [TR-001]
- EC50 (Aβ42 [1]; [6]): 258 µM

Molecule: O=c1ccc(/N=N/c2cc([N+](=O)[O-])cc([N+](=O)[O-])c2)ccc1O [TR-003]
- EC50 (Aβ; [5]): 18.4 µM
- EC50 (Aβ42 [1]; tropolone derivatives, read-out: MSHTS [µM], EC50, Supplementary Table S4): 6.6 µM

Molecule: O=c1ccc(-c2ccc([N+](=O)[O-])cc2)ccc1O [MO-010]
- EC50 (Aβ; [7]): 144 ± 29 µM
- EC50 (Aβ42 [1]; [3]): 52.5 µM
- Aβ aggregation inhibitory activity (in words) (Aβ42 [1]; [4]): active

Molecule: N#Cc1cccc(/N=N/c2ccc(O)c(=O)cc2)c1 [TR-027]
- EC50 (Aβ; [5]): 83 µM
- EC50 (Aβ42 [1]; [8]): 38.7 µM

Molecule: Nc1ccc(O)c(=O)cc1 [MO-009]
- EC50 (Aβ; [5]): 87.6 µM
- EC50 (Aβ42 [1]; [3]): 19.1 µM
- Aβ aggregation inhibitory activity (in words) (Aβ42 [1]; [4]): active

Molecule: O=Nc1ccc(O)c(=O)cc1 [MO-020]
- EC50 (Aβ; [7]): 152 ± 15 µM
- EC50 (Aβ42 [1]; [6]): 154 ± 23 µM
- Aβ aggregation inhibitory activity (in words) (Aβ42 [1]; [4]): active

Molecule: O=c1ccc(/N=N/c2cccc([N+](=O)[O-])c2)ccc1O [TR-002]
- EC50 (Aβ42 [1]; [8]): 232 µM

Molecule: O=c1cccccc1O [MO-073]
- EC50 (Aβ; [7]): 1610 µM

Molecule: O=c1ccc(/N=N/c2cc(C(F)(F)F)cc(C(F)(F)F)c2)ccc1O [TR-004]
- Aβ aggregation inhibitory activity (in words) (Aβ42 [1]; [4]): no activity

Molecule: O=C1C=CC(=O)C=C1 [MO-100]
- Aβ aggregation inhibitory activity (in words) (Aβ42 [1]): active
- EC50 (Aβ42 [1]): 56 µM

Molecule: N#Cc1ccc(/N=N/c2ccc(O)c(=O)cc2)cc1C(F)(F)F [TR-007]
- EC50 (Aβ; [7]): 4.86 ± 0.9 µM
- EC50 (Aβ42 [1]; [8]): 13.9 µM

Molecule: Protein disulfide isomerase [PDI]
- EC50 (tau MBD fragment): 12.7 ± 4.6 µM
- EC50 (Aβ42 [1]; [9]): 1 ± 0.206 µM

Molecule: COc1ccc(-c2ccc([N+](=O)[O-])cc2)ccc1=O [MO-011]
- EC50 (Aβ42 [1]; [6]): 200 ± 66 µM
- Aβ aggregation inhibitory activity (in words) (Aβ42 [1]; [4]): active

Molecule: CN(C)c1ccc(B(O)O)cc1 [MO-074]
- EC50 (Aβ42 [1]; [3]): 53.1 µM
- Aβ aggregation inhibitory activity (in words) (Aβ42 [1]; [4]): active

Molecule: O=C(/C=C/c1ccc(O)c(O)c1)O[C@H](Cc1ccc(O)c(O)c1)C(=O)O [RA, rosmarinic acid]
- EC50 of tau aggregation inhibition (in words) (tau MBD fragment): could not be determined
- EC50 (Aβ42 [2]; 25 µM Aβ, 25 nM QDAβ, 1536-well plate, 24 h at 37 °C, average of 61 sets, read-out: EC50 of Aβ aggregation inhibition, positive control): 26.9 ± 4.57 µM
- Aβ aggregation inhibition at 120 µM, mixed by pipetting 10 times (Aβ42 [2]; 120 µM, pipetting 10 times): did not inhibit
- Aβ aggregation inhibition at 120 µM, mixed by pipetting three or five times (Aβ42 [2]; 120 µM, pipetting three or five times): inhibited
- Aβ aggregation at 300 and 60 µM (Aβ42 [2]; 300 and 60 µM, 25 µM Aβ, 24 h at 37 °C): inhibited
- Aβ aggregation at 600 and 120 µM (Aβ42 [1]; 600 and 120 µM, 30 µM Aβ, 30 nM QD655- or QD605-labeled Aβ): inhibited

Molecule: COc1ccc(-c2cccc([N+](=O)[O-])c2)ccc1=O [MO-007]
- EC50 (Aβ42 [1]; [6]): 144 ± 62 µM
- Aβ aggregation inhibitory activity (in words) (Aβ42 [1]; [4]): active

B1: calreticulin (protein, UniProt P27797 18-417, looked up)
Calreticulin: EPAVYFKEQFLDGDGWTSRWIESKHKSDFGKFVLSSGKFYGDEEKDKGLQTSQDARFYALSASFEPFSNKGQTLVVQFTVKHEQNIDCGGGYVKLFPNSLDQTDMHGDSEYNIMFGPDICGPGTKKVHVIFNYKGKNVLINKDIRCKDDEFTHLYTLIVRPDNTYEVKIDNSQVESGSLEDDWDFLPPKKIKDPDASKPEDWDERAKIDDPTDSKPEDWDKPEHIPDPDAKKPEDWDEEMDGEWEPPVIQNPEYKGEWKPRQIDNPDYKGTWIHPEIDNPEYSPDPSIYAYDNFGVLGLDLWQVKSGTIFDNFLITNDEAYAEEFGNETWGVTKAAEKQMKDKQDEEQRLKEEEEDKKRKEEEEAEDKEDDEDKDEDEEDEEDKEEDEEEDVPGQAKDEL
notes: chaperone
- EC50 (tau MBD fragment): 0.843 ± 0.047 µM
- EC50 (Aβ42 [1]; [9]): 0.191 ± 0.04 µM

B2: ERp57: chaperone (protein, UniProt P30101 25-505, looked up)
Protein disulfide-isomerase A3: SDVLELTDDNFESRISDTGSAGLMLVEFFAPWCGHCKRLAPEYEAAATRLKGIVPLAKVDCTANTNTCNKYGVSGYPTLKIFRDGEEAGAYDGPRTADGIVSHLKKQAGPASVPLRTEEEFKKFISDKDASIVGFFDDSFSEAHSEFLKAASNLRDNYRFAHTNVESLVNEYDDNGEGIILFRPSHLTNKFEDKTVAYTEQKMTSGKIKKFIQENIFGICPHMTEDNKDLIQGKDLLIAYYDVDYEKNAKGSNYWRNRVMMVAKKFLDAGHKLNFAVASRKTFSHELSDFGLESTAGEIPVVAIRTAKGEKFVMQEEFSRDGKALERFLQDYFDGNLKRYLKSEPIPESNDGPVKVVVAENFDEIVNNENKDVLIEFYAPWCGHCKNLEPKYKELGEKLSKDPNIVIAKMDATANDVPSPYEVRGFPTIYFSPANKKLNPKKYEGGRELSDFISYLQREATNPPVIQEEKPKKKKKAQEDL
- EC50 (tau MBD fragment): 4.79 ± 1.19 µM
- EC50 (Aβ42 [1]; [9]): 0.321 ± 0.073 µM
